≈ marks a conversion by molar mass, not a printed value. Numbered stars: 1 amine (or outer) side, 2 acyl side, 3 side chain; on linkers, the order of the positions; unused ones are H or OH. Square brackets hold non-standard residues; d marks the D form. Side chains are listed from the residue outwards. Peptide text beside a SMILES is read from it. * marks the point of attachment. C18 diacid = O=C(O)CCCCCCCCCCCCCCCCC(=O)*; γGlu = O=C(O)[C@H](CCC(=O)[*:2])N[*:1]; dIva = CC[C@@](C)(N)C(=O)O; AEEA = NCCOCCOCC(=O)O; Aib = CC(C)(N)C(=O)O
Key:
[1] = target: human GLP-1 receptor (hGLP-1R) (Homo sapiens, UniProt P43220); assay: Binding assay, displacement of [125I]GLP-1 from HEK-293 membranes over-expressing GLP-1R (SPA); details: [125I]GLP-1 displacement
human GLP-1 receptor (hGLP-1R), sequence (P43220 24-463): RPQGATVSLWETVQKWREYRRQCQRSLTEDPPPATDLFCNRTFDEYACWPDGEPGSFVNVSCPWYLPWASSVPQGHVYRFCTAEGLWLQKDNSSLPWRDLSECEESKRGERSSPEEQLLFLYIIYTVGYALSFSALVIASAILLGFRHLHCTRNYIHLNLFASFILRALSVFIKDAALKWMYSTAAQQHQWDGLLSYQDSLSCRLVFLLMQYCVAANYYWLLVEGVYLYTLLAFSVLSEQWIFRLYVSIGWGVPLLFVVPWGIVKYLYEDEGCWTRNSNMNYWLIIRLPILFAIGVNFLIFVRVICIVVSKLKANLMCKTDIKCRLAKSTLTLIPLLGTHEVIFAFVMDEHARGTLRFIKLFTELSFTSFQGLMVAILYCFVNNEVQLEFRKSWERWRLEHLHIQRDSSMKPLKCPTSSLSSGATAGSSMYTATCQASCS
Description: (1) Preparation of Membranes from HEK-293 Cells Over-Expressing GIPR or GLP-1R
HEK-293 cells recombinantly over-expressing GIPR or GLP-1R were grown to 50% confluency, washed with warm 1×PBS (Gibco) and detached in HEPES/EDTA-buffer (100 mM HEPES pH 7.5, 5 mM EDTA). Cells were harvested by centrifugation at 4° C. and 3000×g and the pellets were stored at −80° C. until further processing.
After thawing on ice, pellets were resuspended in HEPES/EDTA-buffer and homogenized on ice for 1 min using Ultra-Turray T25. After subsequent sonification the cell debris was removed by centrifugation at 1000×g and 4° C. Supernatants were then ultra-centrifuged at 100000×g and 4° C. under vacuum for 30 min. Pellets were resuspended in HEPES/EDTA/NaCl-buffer (20 mM HEPES, 1 mM EDTA, 150 mM NaCl; add 1 Complete Mini Protease inhibitor cocktail to 10 ml buffer) and protein content was determined via BCA-Protein assay.
(2) Measurement of Binding Activity of Test Compounds to Human GIPR or GLP-1R

[2] = Solubility assessment (UHPLC-UV of supernatant, target 10 mg/ml); assay type: physicochemical; details: for Soluble amount: pH 7.4
How it was run: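 Peptides at 10 mg/ml (purity-corrected) in 100 mM phosphate pH 7.4, optionally with 2.7 mg/ml m-cresol; gentle agitation 1 h, then 5° C. overnight (24 h). Supernatant after 15 min centrifugation at 2500 RCF quantified by UHPLC-UV, with sequence-based extinction coefficients.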

[3] = ThT assay for the assessment of physical stability (fibrillation); assay type: physicochemical; details: ThT buffer system A: 100 mM phosphate buffer pH 7.4; 3 mg/ml, 37° C., shaking
Text: Low physical stability of a peptide solution may lead to amyloid fibril formation, which is observed as well-ordered, thread-like macromolecular structures in the sample, which eventually may lead to gel formation. Thioflavin T (ThT) is widely used to visualize and quantify the presence of misfolded protein aggregates [Biancalana et al., Biochim. Biophys. Acta 2010, 1804(7), 1405]. […] Enzymol. 1999, 309, 274]. The time course for fibril formation often follows the characteristic shape of a sigmoidal curve and can be separated into three regions: a lag phase, a fast growth phase, and a plateau phase. The typical fibril formation process starts with the lag phase in which the amount of partially folded peptide turned into fibrils is not significant enough to be detected. The lag-time corresponds to the time the critical mass of the nucleus is built. Afterwards, a drastic elongation phase follows, and fibril concentration increases rapidly. Investigations were carried out to determine fibrillation tendencies under stress conditions by shaking at 37° C. within Fluoroskan Ascent FL or Fluoroskan Ascent. For the tests in Fluoroskan Ascent (FL), 200 μl sample were placed into a 96-well mictrotiter plate PS, flat bottom, Greiner Fluotrac No. 655076. Plates were sealed with Scotch Tape (Qiagen). Samples were stressed by continuous cycles of 10 sec shaking at 960 rpm and 50 sec rest period at 37° C. The kinetic was monitored by measuring fluorescence intensity every 20 min. Peptides were diluted in a buffer system to a final concentration of 3 mg/ml. 20 μl of a 10.1 mM ThT solution in H2O were added to 2 ml of peptide solution to receive a final concentration of 100 μM ThT. For each sample eight replicates were tested. • ThT buffer system A) 100 mM phosphate buffer pH 7.4 • ThT buffer system B) 100 mM phosphate buffer pH 7.4, 2.7 mg/ml m-cresol Lag time in hours (h) in Thioflavin T (ThT) assay of peptide samples was determined in ThT buffer system A as described in Methods.

[4] = Chemical stability assessment (UHPLC-UV purity loss on storage in solution); assay type: physicochemical; details: Chemical stability buffer system A: 20 mM phosphate buffer pH 7.4; ~300 μM
Description: Purity of a peptide batch was determined through UHPLC/MS prior to chemical stability measurement. The target concentration was 300 μM pure compound. Solutions from solid samples were prepared in the following buffer systems with a concentration of ˜300 μM compound based on the previously determined % purity: • Chemical stability buffer system A) 20 mM phosphate buffer pH 7.4, • Chemical stability buffer system B) 8 mM phosphate buffer pH 7.4, 14 mg/ml propylene glycol, 5.5 mg/ml phenol • Chemical stability buffer system C) 100 mM phosphate buffer pH 7.4, 2.7 mg/ml m-cresol
Prepared solutions were filtered through […] pore size and filled into sterilized glass containers under laminar flow conditions.
Glass containers were stored for 28 days at 5 and 40° C. After this time, the samples were centrifuged for 15 min at 2500 RCF. Then 1.5 μl of the undiluted supernatant were analysed with UHPLC-UV.
The chemical stability was rated through the relative loss of purity calculated by the equation: […]
The purity is calculated as
The analytical methods used were Analytical UHPLC Method B or C.
Peptide samples were prepared in Chemical stability buffer system A or B and stability was assessed as described in Methods.

IC50 [1] [µM]	SMILES	solubility ([2]; pH 7.4, Soluble amount) [µg/mL]	Increase in FI [3]	Lag time before increase [3] [h]	Soluble amount ([2]; 24 h) [mg/mL]	solubility at 24 h ([2]; pH 7.4, Soluble amount) [µg/mL]	Relative purity loss over 28 days at 40° C. [4] [%]	Soluble amount [2] [mg/mL]
0.174	CC[C@H](C)[C@H](NC(=O)[C@H](CCCNC(=N)N)NC(=O)[C@H](CC(=O)O)NC(=O)[C@H](CCCCNC(=O)COCCOCCNC(=O)COCCOCCNC(=O)CC[C@H](NC(=O)CCCCCCCCCCCCCCCCC(=O)O)C(=O)O)NC(=O)C(C)(C)NC(=O)[C@@H](NC(=O)[C@H](CO)NC(=O)[C@H](CC(C)C)NC(=O)[C@H](CC(=O)O)NC(=O)[C@H](CO)NC(=O)[C@@H](NC(=O)[C@@](C)(CC)NC(=O)[C@@H](NC(=O)CNC(=O)[C@H](CCC(=O)O)NC(=O)C(C)(C)NC(=O)[C@@H](N)Cc1ccc(O)cc1)[C@@H](C)O)[C@@H](C)CC)[C@@H](C)CC)C(=O)N[C@@H](Cc1c[nH]cn1)C(=O)N[C@@H](CCC(N)=O)C(=O)NC(C)(C)C(=O)N[C@@H](CCC(=O)O)C(=O)N[C@@H](Cc1ccccc1)C(=O)N[C@H](C(=O)N[C@@H](CCC(=O)O)C(=O)N[C@@H](Cc1c[nH]c2ccccc12)C(=O)N[C@@H](CC(C)C)C(=O)N[C@@H](CC(C)C)C(=O)N[C@@H](C)C(=O)N[C@@H](CCC(N)=O)C(=O)N[C@@H](CCCNC(=N)N)C(=O)NCC(N)=O)[C@@H](C)CC [SEQ ID NO: 16, H2N-Y-Aib-E-G-T-Iva-I-S-D-L-S-I-Aib-K[{AEEA}2-gGlu-C18OH]-D-R-I-H-Q-Aib-E-F-I-E-W-L-L-A-Q-R-G-NH2]	5400 (≈ 1260 µM)	no	>45				
	CC[C@H](C)[C@H](NC(=O)[C@H](CCCNC(=N)N)NC(=O)[C@H](CCC(=O)O)NC(=O)[C@H](CCCCNC(=O)COCCOCCNC(=O)COCCOCCNC(=O)CC[C@H](NC(=O)CCCCCCCCCCCCCCCCC(=O)O)C(=O)O)NC(=O)C(C)(C)NC(=O)[C@@H](NC(=O)[C@H](CO)NC(=O)[C@H](CC(C)C)NC(=O)[C@H](CC(=O)O)NC(=O)[C@H](CO)NC(=O)[C@@H](NC(=O)[C@H](Cc1ccccc1)NC(=O)[C@@H](NC(=O)CNC(=O)[C@H](CCC(=O)O)NC(=O)C(C)(C)NC(=O)[C@@H](N)Cc1ccc(O)cc1)[C@@H](C)O)[C@@H](C)CC)[C@@H](C)CC)C(=O)N[C@@H](Cc1c[nH]cn1)C(=O)N[C@@H](CCC(N)=O)C(=O)NC(C)(C)C(=O)N[C@@H](CCC(=O)O)C(=O)N[C@@H](Cc1ccccc1)C(=O)N[C@H](C(=O)N[C@@H](CCC(=O)O)C(=O)N[C@@H](Cc1c[nH]c2ccccc12)C(=O)N[C@@H](CC(C)C)C(=O)N[C@@H](CC(C)C)C(=O)N[C@@H](C)C(=O)N[C@@H](CCC(N)=O)C(=O)NCC(=O)N1CCC[C@H]1C(=O)N[C@@H](CO)C(=O)N[C@@H](CO)C(=O)NCC(=O)N[C@@H](C)C(=O)N1CCC[C@H]1C(=O)N1CCC[C@H]1C(=O)N1CCC[C@H]1C(=O)N[C@@H](CO)C(N)=O)[C@@H](C)CC [SEQ ID NO: 21, H2N-Y-Aib-E-G-T-F-I-S-D-L-S-I-Aib-K[{AEEA}2-gGlu-C18OH]-E-R-I-H-Q-Aib-E-F-I-E-W-L-L-A-Q-G-P-S-S-G-A-P-P-P-S-NH2] (H-Y[Aib]EGTFISDLSI[Aib]K([AEEA-AEEA-γGlu-C18 diacid])ERIHQ[Aib]EFIEWLLAQGPSSGAPPPS-NH2)		no	>45	>10.0	10100 (≈ 2030 µM)		
	CC[C@H](C)[C@H](NC(=O)[C@H](Cc1ccccc1)NC(=O)[C@H](CCC(=O)O)NC(=O)C(C)(C)NC(=O)[C@H](CCC(N)=O)NC(=O)[C@H](Cc1c[nH]cn1)NC(=O)C(C)(C)NC(=O)[C@H](CCCNC(=N)N)NC(=O)[C@H](CC(=O)O)NC(=O)[C@H](CCCCNC(=O)COCCOCCNC(=O)COCCOCCNC(=O)CC[C@H](NC(=O)CCCCCCCCCCCCCCCCC(=O)O)C(=O)O)NC(=O)C(C)(C)NC(=O)[C@@H](NC(=O)[C@H](CO)NC(=O)[C@H](CC(C)C)NC(=O)[C@H](CC(=O)O)NC(=O)[C@H](CO)NC(=O)[C@@H](NC(=O)[C@H](Cc1ccccc1)NC(=O)[C@@H](NC(=O)CNC(=O)[C@H](CCC(=O)O)NC(=O)C(C)(C)NC(=O)[C@@H](N)Cc1ccc(O)cc1)[C@@H](C)O)[C@@H](C)CC)[C@@H](C)CC)C(=O)N[C@@H](CCC(=O)O)C(=O)N[C@@H](Cc1c[nH]c2ccccc12)C(=O)N[C@@H](CC(C)C)C(=O)N[C@@H](CC(C)C)C(=O)N[C@@H](C)C(=O)N[C@@H](CCC(N)=O)C(=O)N[C@@H](CCCNC(=N)N)C(=O)N1CCC[C@H]1C(=O)N[C@@H](CO)C(=O)N[C@@H](CO)C(=O)NCC(=O)N[C@@H](C)C(=O)N1CCC[C@H]1C(=O)N1CCC[C@H]1C(=O)N1CCC[C@H]1C(=O)N[C@@H](CO)C(N)=O [SEQ ID NO: 22, H2N-Y-Aib-E-G-T-F-I-S-D-L-S-I-Aib-K[{AEEA}2-gGlu-C18OH]-D-R-Aib-H-Q-Aib-E-F-I-E-W-L-L-A-Q-R-P-S-S-G-A-P-P-P-S-NH2] (H-Y[Aib]EGTFISDLSI[Aib]K([AEEA-AEEA-γGlu-C18 diacid])DR[Aib]HQ[Aib]EFIEWLLAQRPSSGAPPPS-NH2)		no	>45			6.1	
	CC[C@H](C)[C@H](NC(=O)[C@H](CCCNC(=N)N)NC(=O)[C@H](CC(=O)O)NC(=O)[C@H](CCCCNC(=O)COCCOCCNC(=O)COCCOCCNC(=O)CC[C@H](NC(=O)CCCCCCCCCCCCCCCCC(=O)O)C(=O)O)NC(=O)C(C)(C)NC(=O)[C@@H](NC(=O)[C@H](CO)NC(=O)[C@H](CC(C)C)NC(=O)[C@H](CC(=O)O)NC(=O)[C@H](CO)NC(=O)[C@@H](NC(=O)[C@H](Cc1ccccc1)NC(=O)[C@@H](NC(=O)CNC(=O)[C@H](CCC(=O)O)NC(=O)C(C)(C)NC(=O)[C@@H](N)Cc1ccc(O)cc1)[C@@H](C)O)[C@@H](C)CC)[C@@H](C)CC)C(=O)N[C@@H](Cc1c[nH]cn1)C(=O)N[C@@H](CCC(N)=O)C(=O)NC(C)(C)C(=O)N[C@@H](CCC(=O)O)C(=O)N[C@@H](Cc1ccccc1)C(=O)N[C@H](C(=O)N[C@@H](CCC(=O)O)C(=O)N[C@@H](Cc1c[nH]c2ccccc12)C(=O)N[C@](C)(CC)C(=O)N[C@@H](CC(C)C)C(=O)N[C@@H](C)C(=O)N[C@@H](CCC(N)=O)C(=O)NCC(=O)N1CCC[C@H]1C(=O)N[C@@H](CO)C(=O)N[C@@H](CO)C(=O)NCC(=O)N[C@@H](C)C(=O)N1CCC[C@H]1C(=O)N1CCC[C@H]1C(=O)N1CCC[C@H]1C(=O)N[C@@H](CO)C(N)=O)[C@@H](C)CC [SEQ ID NO: 31, H2N-Y-Aib-E-G-T-F-I-S-D-L-S-I-Aib-K[{AEEA}2-gGlu-C18OH]-D-R-I-H-Q-Aib-E-F-I-E-W-Iva-L-A-Q-G-P-S-S-G-A-P-P-P-S-NH2] (H-Y[Aib]EGTFISDLSI[Aib]K([AEEA-AEEA-γGlu-C18 diacid])DRIHQ[Aib]EFIEW[dIva]LAQGPSSGAPPPS-NH2)	> 10000	no	>45			6.2	9.6

Reference: patent US20240360194A1, “New Peptides as Potent and Selective GIP Receptor Agonists” (Sanofi, priority 2021, published 2024)
